Reference: patent US9637488B2, “Heterocyclic compounds as inhibitors of class I PI3KS” (priority 2015, dated 2017)

Tests used:
Assay type in all cases: biochemical
[1] = molecular target: PI3Kδ (p110δ/p85α) (Homo sapiens (Human), UniProt O00329); experiment: cell-free PI3K HTRF assay, PI3Kδ; settings: for IC50: 10-dose IC50 mode, 3-fold serial dilution starting at 1 μM, ATP 10 μM, read-out: IC50 value for the inhibition of PI3Kδ; for potency or inhibition against PI3Kδ (in words): qualitative statement
Sequence of PI3Kδ (p110δ/p85α) (O00329 whole entry): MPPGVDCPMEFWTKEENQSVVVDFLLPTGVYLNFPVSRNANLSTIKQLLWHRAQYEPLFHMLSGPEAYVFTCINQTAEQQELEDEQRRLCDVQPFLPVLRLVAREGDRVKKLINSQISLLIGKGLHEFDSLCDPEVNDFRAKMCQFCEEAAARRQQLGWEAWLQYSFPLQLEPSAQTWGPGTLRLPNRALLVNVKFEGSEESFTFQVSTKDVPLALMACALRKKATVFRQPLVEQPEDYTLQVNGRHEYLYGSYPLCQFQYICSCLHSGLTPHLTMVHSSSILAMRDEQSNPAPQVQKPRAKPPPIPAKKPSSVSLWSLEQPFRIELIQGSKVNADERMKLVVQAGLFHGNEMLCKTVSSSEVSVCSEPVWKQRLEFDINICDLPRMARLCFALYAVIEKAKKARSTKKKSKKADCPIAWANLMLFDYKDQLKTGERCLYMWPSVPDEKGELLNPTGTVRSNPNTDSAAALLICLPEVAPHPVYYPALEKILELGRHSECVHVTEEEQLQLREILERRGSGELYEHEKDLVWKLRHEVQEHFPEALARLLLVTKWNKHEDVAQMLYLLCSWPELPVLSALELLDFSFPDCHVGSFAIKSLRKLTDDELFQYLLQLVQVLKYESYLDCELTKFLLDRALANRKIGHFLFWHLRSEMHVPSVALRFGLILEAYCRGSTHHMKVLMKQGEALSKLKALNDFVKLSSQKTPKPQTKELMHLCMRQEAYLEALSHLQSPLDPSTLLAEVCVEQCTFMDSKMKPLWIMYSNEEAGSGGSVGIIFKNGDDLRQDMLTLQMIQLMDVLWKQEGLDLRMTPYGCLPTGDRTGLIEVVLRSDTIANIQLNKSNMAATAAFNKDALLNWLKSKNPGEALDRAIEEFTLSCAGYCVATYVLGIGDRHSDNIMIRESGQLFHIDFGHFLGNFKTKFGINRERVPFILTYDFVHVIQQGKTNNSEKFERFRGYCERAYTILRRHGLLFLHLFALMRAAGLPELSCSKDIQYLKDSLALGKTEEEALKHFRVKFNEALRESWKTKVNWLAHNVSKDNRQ
Sequence of PI3Kδ (p110δ/p85α) (P27986 whole entry partner): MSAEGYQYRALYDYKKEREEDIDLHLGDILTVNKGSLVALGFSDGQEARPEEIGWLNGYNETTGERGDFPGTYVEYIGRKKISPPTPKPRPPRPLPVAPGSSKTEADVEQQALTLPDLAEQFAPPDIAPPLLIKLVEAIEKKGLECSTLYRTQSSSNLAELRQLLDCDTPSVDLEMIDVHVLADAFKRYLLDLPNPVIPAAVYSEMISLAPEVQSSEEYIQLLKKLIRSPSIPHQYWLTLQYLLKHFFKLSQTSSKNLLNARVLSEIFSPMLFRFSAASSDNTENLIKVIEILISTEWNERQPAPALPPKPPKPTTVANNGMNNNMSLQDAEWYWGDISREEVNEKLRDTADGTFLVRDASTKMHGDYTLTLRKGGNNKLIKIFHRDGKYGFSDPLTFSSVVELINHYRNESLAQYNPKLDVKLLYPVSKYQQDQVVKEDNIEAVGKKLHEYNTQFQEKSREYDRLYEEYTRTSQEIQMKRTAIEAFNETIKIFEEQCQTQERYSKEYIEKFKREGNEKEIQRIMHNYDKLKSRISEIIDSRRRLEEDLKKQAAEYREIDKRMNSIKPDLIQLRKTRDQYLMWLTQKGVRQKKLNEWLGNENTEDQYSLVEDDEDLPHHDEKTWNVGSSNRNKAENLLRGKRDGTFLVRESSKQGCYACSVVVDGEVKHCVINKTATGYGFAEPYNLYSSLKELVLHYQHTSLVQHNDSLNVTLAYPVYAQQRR

[2] = molecular target: PI3Kβ (p110β/p85α) (Homo sapiens (Human), UniProt P42338); experiment: cell-free PI3K HTRF assay, PI3Kβ; settings: ratio of IC50 against PI3Kβ related to PI3Kδ; 10-dose, 3-fold serial dilution starting at 10 μM
Sequence of PI3Kβ (p110β/p85α) (P42338 whole entry): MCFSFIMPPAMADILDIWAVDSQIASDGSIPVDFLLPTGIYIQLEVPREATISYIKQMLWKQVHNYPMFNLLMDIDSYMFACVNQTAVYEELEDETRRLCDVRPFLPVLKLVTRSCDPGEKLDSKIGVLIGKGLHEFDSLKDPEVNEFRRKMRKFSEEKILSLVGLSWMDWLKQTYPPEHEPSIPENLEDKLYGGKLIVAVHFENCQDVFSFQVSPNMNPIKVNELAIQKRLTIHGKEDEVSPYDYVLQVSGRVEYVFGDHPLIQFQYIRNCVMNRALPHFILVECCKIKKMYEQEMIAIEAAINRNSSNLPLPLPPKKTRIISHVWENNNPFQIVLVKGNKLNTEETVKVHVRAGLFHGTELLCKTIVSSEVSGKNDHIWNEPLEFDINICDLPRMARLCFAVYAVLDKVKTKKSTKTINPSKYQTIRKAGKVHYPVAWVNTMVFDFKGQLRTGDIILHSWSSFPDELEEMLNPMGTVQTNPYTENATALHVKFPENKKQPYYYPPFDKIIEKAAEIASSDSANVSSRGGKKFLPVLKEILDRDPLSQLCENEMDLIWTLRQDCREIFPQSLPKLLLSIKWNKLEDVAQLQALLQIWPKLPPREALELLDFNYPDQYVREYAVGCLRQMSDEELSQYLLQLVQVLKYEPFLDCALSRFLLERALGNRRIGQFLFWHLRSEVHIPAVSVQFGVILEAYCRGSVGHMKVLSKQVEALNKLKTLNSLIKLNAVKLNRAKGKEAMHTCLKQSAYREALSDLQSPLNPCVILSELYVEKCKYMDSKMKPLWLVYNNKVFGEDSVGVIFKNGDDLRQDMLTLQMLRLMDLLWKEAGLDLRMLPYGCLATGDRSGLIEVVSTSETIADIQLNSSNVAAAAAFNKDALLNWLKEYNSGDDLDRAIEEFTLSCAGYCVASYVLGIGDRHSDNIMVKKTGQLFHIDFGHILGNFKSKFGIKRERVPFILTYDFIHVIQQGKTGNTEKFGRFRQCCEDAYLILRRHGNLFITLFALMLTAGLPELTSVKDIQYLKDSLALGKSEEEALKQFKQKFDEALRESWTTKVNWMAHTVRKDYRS
Sequence of PI3Kβ (p110β/p85α) (P27986 whole entry partner): as the sequence (P27986 whole entry partner) above
Protocol: (§1) Exemplary compounds of the invention were tested for inhibitory activity and potency against class I PI3Ks (p110α/p85α, p110β/p85α, p110δ/p85α and p110γ) using a cell-free based PI3K HTRF assay. This assay was used to detect the formation of the product 3,4,5-inositol triphosphate molecule (PIP3) by displacement of biotin-PIP3 from an energy transfer complex consisting of Europium labeled anti-GST monoclonal antibody, a GST-tagged pleckstrin homology (PH) domain, biotinylated PIP3 and Streptavidin-Allophycocyanin (APC). Excitation of Europium in the complex results in an energy transfer to the APC and a fluorescent emission at 665 nm. The PIP3 product formed by human PI 3-Kinase activity displaces biotin-PIP3 from the complex resulting in a loss of energy transfer and thus a decrease in signal.
(§2) Human class I PI3K isoforms were co-expressed in a Baculovirus infected cell expression system. The PI3K isoforms were assayed in the presence of HEPES (50 mM, pH 7.0), NaN3 (0.02%), BSA (0.01%), orthovanadate (0.1 mM), and DMSO (1%). The exemplary compounds dissolved in DMSO were delivered into the kinase reaction mixture by Acoustic technology (Echo550; nanolitter range), and were pre-incubated for 10 min at room temperature before adding ATP (10 μM) to initiate the reaction. After 30 min at 30° C., the reactions were quenched with a stop solution, incubated overnight with a detection mixture before measuring HTRF (Ex: 320 nm; Em: 615/665 nm). The emission ratio is converted into μM PIP3 production based on PIP3 standard curves, and the nonlinear regression to obtain the standard curve and IC50 values are performed using Graphpad Prism software.
(§3) The assays were performed at Reaction Biology Corporation, One Great Valley Parkway, Suite 2, Malvern, Pa. 19355, USA.
(§4) Exemplary compounds of the invention selected were further tested their inhibitory activity or potency against PI3Kα, PI3Kβ, and PI3Kγ in 10-dose IC50 mode with 3-fold serial dilution starting at 10 μM. […] Table 5 below illustrates the selectivity of the exemplary compounds using the ratios of the IC50 values of the compounds against PI3Kα, PI3Kβ, and PI3Kγ related to PI3Kδ. […] Such unexpected selectivity against PI3Kδ and/or PI3Kγ is attributed to the unusual overall shape of the molecules of formula (I) and (II), and the optimal selection of R1, R2, R3, R4, X, and Y defined in formula (I) and (II) in order to bind favorably in the ATP-binding pocket of PI3Kδ and/or PI3Kγ versus other class I isozymes.

[3] = molecular target: PI3Kγ (p110γ) (Homo sapiens (Human), UniProt P48736); experiment: cell-free PI3K HTRF assay, PI3Kγ; settings: ratio of IC50 against PI3Kγ related to PI3Kδ; 10-dose, 3-fold serial dilution starting at 10 μM
Sequence of PI3Kγ (p110γ) (P48736 whole entry): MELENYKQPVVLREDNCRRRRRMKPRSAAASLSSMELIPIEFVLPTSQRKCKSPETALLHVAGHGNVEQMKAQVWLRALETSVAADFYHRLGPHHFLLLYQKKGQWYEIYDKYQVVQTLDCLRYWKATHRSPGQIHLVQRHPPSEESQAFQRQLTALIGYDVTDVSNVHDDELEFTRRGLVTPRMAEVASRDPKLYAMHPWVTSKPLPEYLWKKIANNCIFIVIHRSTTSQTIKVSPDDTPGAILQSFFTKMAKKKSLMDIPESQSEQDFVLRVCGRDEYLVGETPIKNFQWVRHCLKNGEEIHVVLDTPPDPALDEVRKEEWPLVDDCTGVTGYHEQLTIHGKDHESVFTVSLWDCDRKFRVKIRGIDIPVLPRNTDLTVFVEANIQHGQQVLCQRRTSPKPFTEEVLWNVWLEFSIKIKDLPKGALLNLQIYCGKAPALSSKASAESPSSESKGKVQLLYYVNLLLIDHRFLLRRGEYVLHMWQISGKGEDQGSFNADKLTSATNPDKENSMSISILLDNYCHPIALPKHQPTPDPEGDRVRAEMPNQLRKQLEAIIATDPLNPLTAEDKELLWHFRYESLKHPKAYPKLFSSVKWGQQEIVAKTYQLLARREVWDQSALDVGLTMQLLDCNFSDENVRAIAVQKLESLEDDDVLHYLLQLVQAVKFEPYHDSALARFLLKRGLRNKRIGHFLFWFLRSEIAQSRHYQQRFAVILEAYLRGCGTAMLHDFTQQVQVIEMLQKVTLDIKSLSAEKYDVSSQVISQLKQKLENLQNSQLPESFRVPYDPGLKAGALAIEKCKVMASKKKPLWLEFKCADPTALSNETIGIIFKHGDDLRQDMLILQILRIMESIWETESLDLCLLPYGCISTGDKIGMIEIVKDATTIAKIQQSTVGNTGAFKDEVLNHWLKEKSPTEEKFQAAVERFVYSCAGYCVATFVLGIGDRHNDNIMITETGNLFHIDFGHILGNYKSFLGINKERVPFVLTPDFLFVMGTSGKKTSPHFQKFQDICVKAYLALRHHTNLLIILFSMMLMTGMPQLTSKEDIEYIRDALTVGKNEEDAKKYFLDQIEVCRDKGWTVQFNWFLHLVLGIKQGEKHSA
Protocol: as §1, §2, §3, §4

[4] = molecular target: PI3Kα (p110α/p85α) (Homo sapiens (Human), UniProt P42336); experiment: cell-free PI3K HTRF assay, PI3Kα; settings: ratio of IC50 against PI3Kα related to PI3Kδ; 10-dose, 3-fold serial dilution starting at 10 μM
Sequence of PI3Kα (p110α/p85α) (P42336 whole entry): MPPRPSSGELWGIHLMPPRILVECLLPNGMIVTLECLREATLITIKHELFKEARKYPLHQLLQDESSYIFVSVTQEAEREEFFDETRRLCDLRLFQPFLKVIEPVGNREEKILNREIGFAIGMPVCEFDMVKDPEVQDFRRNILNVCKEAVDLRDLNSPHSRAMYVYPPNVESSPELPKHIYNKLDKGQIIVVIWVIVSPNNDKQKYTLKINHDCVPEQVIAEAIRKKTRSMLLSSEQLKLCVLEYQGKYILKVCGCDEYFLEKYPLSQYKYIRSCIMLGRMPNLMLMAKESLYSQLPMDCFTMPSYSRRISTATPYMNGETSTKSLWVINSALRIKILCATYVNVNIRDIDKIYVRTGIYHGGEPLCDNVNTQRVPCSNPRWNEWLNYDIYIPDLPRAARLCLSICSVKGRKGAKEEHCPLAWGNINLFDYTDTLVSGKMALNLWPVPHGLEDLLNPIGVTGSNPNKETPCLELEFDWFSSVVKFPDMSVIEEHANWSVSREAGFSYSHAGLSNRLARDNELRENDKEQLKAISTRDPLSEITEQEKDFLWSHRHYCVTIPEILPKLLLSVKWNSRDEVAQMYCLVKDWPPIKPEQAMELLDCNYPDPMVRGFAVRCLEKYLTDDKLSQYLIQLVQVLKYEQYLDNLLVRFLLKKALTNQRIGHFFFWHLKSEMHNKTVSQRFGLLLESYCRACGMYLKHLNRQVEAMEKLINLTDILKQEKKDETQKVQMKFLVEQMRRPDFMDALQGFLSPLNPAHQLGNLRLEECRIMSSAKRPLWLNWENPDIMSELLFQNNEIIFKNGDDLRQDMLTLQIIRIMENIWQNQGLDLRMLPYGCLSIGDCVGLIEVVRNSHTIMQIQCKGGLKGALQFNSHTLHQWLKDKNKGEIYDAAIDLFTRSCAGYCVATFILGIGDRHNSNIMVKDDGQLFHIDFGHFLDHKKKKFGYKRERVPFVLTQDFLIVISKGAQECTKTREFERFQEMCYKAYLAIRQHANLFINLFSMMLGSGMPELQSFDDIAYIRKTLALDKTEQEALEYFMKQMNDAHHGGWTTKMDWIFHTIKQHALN
Sequence of PI3Kα (p110α/p85α) (P27986 whole entry partner): as the sequence (P27986 whole entry partner) above
Protocol: as §1, §2, §3, §4

## N#Cc1c(N)ncnc1N1CC=CCC1c1cc2ccc(F)cc2nc1N1CCOCC1 (stereo not drawn) [Compound 44]
[1]
  IC50: 6.2 nM
[2]
  Ratio (β/δ): 297
[3]
  Ratio (γ/δ): 152

## Cc1cccc2cc([C@@H]3CCCN3c3nc(N)nc(N)c3C#N)c(-c3ccccc3)nc12 [Compound 54, (S)-2,4-diamino-6-(2-(8-methyl-2-phenylquinolin-3-yl)pyrrolidin-1-yl)pyrimidine-5-carbonitrile]
[1]
  IC50: < 0.05 nM
[4]
  Ratio (α/δ): >1801
[2]
  Ratio (β/δ): >1120
[3]
  Ratio (γ/δ): ~10

## Fc1ccc2cc(C3CCCN3c3ncnc4[nH]cnc34)c(-c3ccccc3)nc2c1 (stereo not drawn) [Compound 21]
[1]
  IC50: 0.7 nM
[4]
  Ratio (α/δ): 12818
[2]
  Ratio (β/δ): 3550
[3]
  Ratio (γ/δ): 67.5

## Cn1c(=O)n(C)c2c(N3CCCC3c3cc4ccc(F)cc4nc3-c3ccccn3)ncnc21 (stereo not drawn) [Compound 13]
[1]
  IC50: > 1000 nM
  potency or inhibition against PI3Kδ (in words): week potency or inhibition

## N#Cc1c(N)ncnc1N1CCCC1c1cc2ccc(F)cc2nc1N1CCCCC1 (stereo not drawn) [Compound 18]
[1]
  IC50: 0.1 nM
[4]
  Ratio (α/δ): >100000
[2]
  Ratio (β/δ): 14712
[3]
  Ratio (γ/δ): 955

## Cc1cccc2cc([C@@H]3CCCN3c3ncnc(N)c3C#N)c(N3CCOCC3)nc12 [Compound 65]
[1]
  IC50: < 0.05 nM
[4]
  Ratio (α/δ): >1738
[2]
  Ratio (β/δ): >789
[3]
  Ratio (γ/δ): >188

## N#Cc1c(N)ncnc1N1CC=CCC1c1cc2ccc(F)cc2nc1-c1ccccc1 (stereo not drawn) [Compound 42]
[1]
  IC50: 55 nM
[2]
  Ratio (β/δ): >181
[3]
  Ratio (γ/δ): 103

## Cc1cccc2cc([C@@H]3CCCN3c3ncnc4[nH]cnc34)c(N3CCOCC3)nc12 [Compound 64]
[1]
  IC50: 1.6 nM
[4]
  Ratio (α/δ): 748
[2]
  Ratio (β/δ): 317
[3]
  Ratio (γ/δ): 48

## Fc1ccc2cc(C3CCCN3c3ncnc4[nH]cnc34)c(-c3ccccc3F)nc2c1 (stereo not drawn) [Compound 24]
[1]
  IC50: 16 nM
[4]
  Ratio (α/δ): >613
[2]
  Ratio (β/δ): 393
[3]
  Ratio (γ/δ): 22

## Fc1ccc2cc(C3CCCCCN3c3ncnc4[nH]cnc34)c(-c3ccccc3)nc2c1 (stereo not drawn) [Compound 45, 3-(1-(9H-purin-6-yl)azepan-2-yl)-7-fluoro-2-phenylquinoline]
[1]
  IC50: > 1000 nM
  potency or inhibition against PI3Kδ (in words): week potency or inhibition

## COc1ccccc1-c1nc2cc(F)ccc2cc1C1CCCN1c1ncnc2[nH]cnc12 (stereo not drawn) [Compound 25]
[1]
  IC50: 14 nM
[4]
  Ratio (α/δ): >694
[2]
  Ratio (β/δ): 297
[3]
  Ratio (γ/δ): 5.1

## Nc1cc(N2CCCC2c2cc3ccc(F)cc3nc2-c2ccccc2)nc(N)n1 (stereo not drawn) [Compound 28]
[1]
  IC50: > 1000 nM

## N#Cc1c(N)nc(N)nc1N1CCC[C@H]1c1cc2cccc(Cl)c2nc1-c1ccccc1 [Compound 68]
[1]
  IC50: < 0.05 nM
[4]
  Ratio (α/δ): >545
[2]
  Ratio (β/δ): >106
[3]
  Ratio (γ/δ): ~10

## Fc1ccc2cc(C3CCCN3c3ncnc4[nH]cnc34)c(-c3cccnc3)nc2c1 (stereo not drawn) [Compound 1, 3-(1-(9H-purin-6-yl)pyrrolidin-2-yl)-7-fluoro-2-(pyridin-3-yl)quinoline]
[1]
  IC50: 27 nM
[2]
  Ratio (β/δ): 267
[3]
  Ratio (γ/δ): 39

## Fc1ccc2cc(C3CCCN3c3ncnc4[nH]cnc34)c(-c3cccc(OC(F)(F)F)c3)nc2c1 (stereo not drawn) [Compound 26]
[1]
  IC50: 207 nM
[4]
  Ratio (α/δ): 483
[2]
  Ratio (β/δ): 39.7
[3]
  Ratio (γ/δ): 12

## Fc1ccc2cc(C3CCCN3c3ncnc4[nH]cnc34)c(N3CCOCC3)nc2c1 (stereo not drawn) [Compound 20]
[1]
  IC50: 19 nM
[4]
  Ratio (α/δ): 528
[2]
  Ratio (β/δ): 190
[3]
  Ratio (γ/δ): 18.8

## Fc1ccc2cc(C3CCCN3c3ncnc4[nH]cnc34)c(N3CCCCC3)nc2c1 (stereo not drawn) [Compound 16]
[1]
  IC50: 2.2 nM
[4]
  Ratio (α/δ): 3360
[2]
  Ratio (β/δ): 1153
[3]
  Ratio (γ/δ): 145

## COc1cccc(-c2nc3cc(F)ccc3cc2C2CCCN2c2ncnc(N)c2C#N)c1 (stereo not drawn) [Compound 30]
[1]
  IC50: 4.8 nM
[4]
  Ratio (α/δ): 962
[2]
  Ratio (β/δ): 631
[3]
  Ratio (γ/δ): 85

## Clc1cccc2cc([C@@H]3CCCN3c3ncnc4[nH]cnc34)c(N3CCOCC3)nc12 [Compound 66]
[1]
  IC50: 1.8 nM
[4]
  Ratio (α/δ): 493
[2]
  Ratio (β/δ): 250
[3]
  Ratio (γ/δ): 24

## Fc1cccc(-c2nc3cc(F)ccc3cc2C2CCCN2c2ncnc3[nH]cnc23)c1 (stereo not drawn) [Compound 22]
[1]
  IC50: 0.5 nM
[4]
  Ratio (α/δ): 16451
[2]
  Ratio (β/δ): 8946
[3]
  Ratio (γ/δ): 139

## N#Cc1c(N)nc(N)nc1N1CCCC1c1cc2ccc(F)cc2nc1-c1ccccc1 (stereo not drawn) [Compound 27]
[1]
  IC50: < 0.05 nM
[4]
  Ratio (α/δ): >12756
[2]
  Ratio (β/δ): >2185
[3]
  Ratio (γ/δ): >2.3

## Cc1cccc2cc([C@@H]3CCCN3c3ncnc4[nH]cnc34)c(-c3ccccc3)nc12 [Compound 63]
[1]
  IC50: 18 nM
[4]
  Ratio (α/δ): 556
[2]
  Ratio (β/δ): 264
[3]
  Ratio (γ/δ): 5.6

## N#Cc1c(N)ncnc1N1CCCC1c1cc2ccc(F)cc2nc1-c1ccncc1 (stereo not drawn) [Compound 15]
[1]
  IC50: 62 nM
[4]
  Ratio (α/δ): 138
[2]
  Ratio (β/δ): 11
[3]
  Ratio (γ/δ): 2.2

## N#Cc1c(N)ncnc1N1CCCC1c1cc2ccc(F)cc2nc1N1CCOCC1 (stereo not drawn) [Compound 7, 4-amino-6-(2-(7-fluoro-2-morpholinoquinolin-3-yl)pyrrolidin-1-yl)pyrimidine-5-carbonitrile]
[1]
  IC50: 1.6 nM
[4]
  Ratio (α/δ): 1000
[2]
  Ratio (β/δ): 344
[3]
  Ratio (γ/δ): 111

## N#Cc1c(N)ncnc1N1CCCC1c1cc2ccc(F)cc2nc1-c1ccccc1 (stereo not drawn) [Compound 29]
[1]
  IC50: 1.7 nM
[4]
  Ratio (α/δ): 2170
[2]
  Ratio (β/δ): 478
[3]
  Ratio (γ/δ): 52.4

## Fc1ccc2cc(C3CCCCN3c3ncnc4[nH]cnc34)c(-c3ccccc3)nc2c1 (stereo not drawn) [Compound 41]
[1]
  IC50: 240 nM

## COc1cccc(-c2nc3cc(F)ccc3cc2C2CCCN2c2ncnc3[nH]cnc23)c1 (stereo not drawn) [Compound 23]
[1]
  IC50: 11 nM
[4]
  Ratio (α/δ): >926
[2]
  Ratio (β/δ): 396
[3]
  Ratio (γ/δ): 50

## N#Cc1c(N)ncnc1N1CCC[C@H]1c1cc2cccc(Cl)c2nc1N1CCOCC1 [Compound 69]
[1]
  IC50: < 0.05 nM
[4]
  Ratio (α/δ): >4154
[2]
  Ratio (β/δ): >111
[3]
  Ratio (γ/δ): >31

## Fc1ccc2cc(C3CC=CCN3c3ncnc4[nH]cnc34)c(-c3ccccc3)nc2c1 (stereo not drawn) [Compound 31, 3-(1-(9H-purin-6-yl)-1,2,3,6-tetrahydropyridin-2-yl)-7-fluoro-2-phenylquinoline]
[1]
  IC50: 103 nM
[2]
  Ratio (β/δ): >97
[3]
  Ratio (γ/δ): 16
